According to patent US20240325548A1, “DYNAMIC BIOACTIVE SCAFFOLDS AND THERAPEUTIC USES THEREOF AFTER CNS INJURY” (Northwestern University, priority 2021, published 2024):

Experiments:
[1] = Negative-stain TEM fiber width; assay type: physicochemical
Method: To prepare the negatively stained TEM specimen, 7 μL of PA sample solution (1 wt % PA prepared in 150 mM NaCl and 3 mM diluted 10 times in MilliQ water) was applied on the shiny side of a glow discharged grid (300 mesh copper with carbon film, Electron Microscopy Sciences), followed by rinsing three times with MilliQ water to remove the excess of salt. The grid was then stained with filtered 2 wt % uranyl acetate aqueous solution and dried in air. TEM imaging was carried out on a JEOL 1230 microscope with a LaB6 filament at 100 kV accelerating voltage, equipped with a Gatan 831 CCD camera. A cold finger was introduced for sample stabilization during imaging.

[2] = test system: hNPCs; test: hNPC attachment, proliferation and phenotype on co-assembled PA coatings (EdU, SOX-2, PAX6); assay type: cell-based, human
Source text: Neural progenitor cells (NPCs) were differentiated from human embryonic stem cells HUES 64 (Harvard University) (see FIG. 2C). In short, 70% confluent stem cell cultures grown in Matrigel (Thermo Fisher) coated plates with mTESR medium (STEMCELL Technologies), were switched to N2B27 medium (50% DMEM: F12, 50% Neurobasal, supplemented with NEAA, Glutamax, N2 and B27; Gibco) containing dual SMAD inhibitors (SB431542, DNSK International and LDN-193189, Tocris) for 12 days to induce the generation of neural progenitors. Neuralization was enhanced by supplementing medium with laminin from day 5 to 12. Next, neural rosettes were dissociated with neural rosette selection reagent (STEMCELL Technologies) to obtain NPCs, which are expanded in N2B27 (Gibco) medium supplemented with bFGF (Millipore). For experimentation in the different PA platforms, NPCs were dissociated with Accutase (Innovative Cell technology), and cultured in the distinct platforms with DMEM: F12+N2+B27 medium with hyclone penicillin-streptomycin (GE Healthcare) and ascorbic acid (0.2 μg/mL; Sigma-Aldrich).
For IKVAV PA treatments, hNPCs were cultured on ornithine coatings (German Glass, Chemglass Life Science) in 6 well and 24 well plates at a density of 500,000 cells/well and 80,000 cells/well respectively. hNPCs were treated with […] of IKVAV PAs ([PA]=6 mM, [KCl]=3 mM, [NaCl]=150 mM) or recombinant laminin protein (10 mg/mL) in solution. IKVAV PA2 and IKVAV PA5 were also mixed with 5 mM CaCl2) at a ratio PA:CaCl2) 6:1 to treat hNPCs. For 2D experiments, hNPCs were cultured on the different IKVAV PAs or laminin coatings in 6 well and 24 well plates at densities mentioned above. For co-assembled experiments, hNPCs were cultured on the different co-assembled PA coatings in 6 well and 24 well plates at a density of 400,000 cells/well and 50,000 cells/well respectively.
hNPCs were fed 4 times a week with DMEM: F12+N2^+B27 medium with hyclone penicillin-streptomycin and ascorbic acid. After 24 h, 72 h 1- or 2-weeks in vitro, cell lysates were harvested or fixed for WB or ICC, respectively. Three replicates per condition and at least three independent experiments were carried out for all conditions investigated.
For the hNPCs proliferation assay, 2 μM of the thymidine analog 5-ethynyl-2′-deoxyuridine (EdU, Thermo Fisher) was incorporated into the culture medium for 24 h. Cells were fixed at the indicated time points in 4% paraformaldehyde (PFA) for 15 min at RT. After fixation, samples were washed in PBS twice and then stained with Click-iT™ EdU Cell Proliferation Kit containing 11 mM CuSO4 (from 50 mM stock) and 1 μg/mL of Alexa Fluor-555 azide (from 0.5 mg/mL, Thermo Fisher) for 30 minutes at RT in the dark. The staining cocktail was then removed, and cells were washed with PBS. Then, hNPCs were counterstained with anti-rabbit SOX-2 antibody following the immunofluorescence protocol described below and 4′, 6-diamidino-2-phenylindole (DAPI, Thermo Fisher) at 5 μg/mL in PBS for 20 min at RT. The cells were then washed with PBS and mounted with Immu-Mount (Fisher Scientific) for imaging.
For immunofluorescence, fixed primary cultures or free-floating tissue sections (40 m Thick) were incubated in blocking buffer containing 0.02% Triton-X (Sigma-Aldrich), 1% NHS (Gibco) and PBS 1× (Gibco). Samples were incubated with primary antibodies over night at 4° C. Alexa-488, Alexa-555 and/or Alexa-647 (1:500, Thermofisher) were used as secondary antibodies. DAPI (1:500, Thermofisher) was used to stain nuclei. […]

average fiber width [1]: 10.6±0.1 nm
Substance: C16-A2G2E4GIKVAV [IKVAV PA2]
percentage of proliferating EdU+ and SOX2+ cells [2]: decreased significantly
percentage of neuronal progenitor cells PAX6+ ([2]; one week later): increased percentage
